From ChEMBL document CHEMBL1138823, “Diaminopyrimidine and diaminopyridine 5-HT7 ligands” (Bioorg Med Chem Lett, 2004)

What was measured:
[1] = target: 5-hydroxytryptamine receptor 7 (Homo sapiens, UniProt P34969); assay: Binding affinity against 5-Hydroxy tryptamine 7 receptor
D(2) dopamine receptor = D(2) dopamine receptor (Homo sapiens, UniProt P14416); assay: Binding affinity against D2L receptor
[2] = target: 5-hydroxytryptamine receptor 2C (Rattus norvegicus) (UniProt P08909); assay: Binding affinity against 5-Hydroxy tryptamine 2C receptor
[3] = target: Adrenergic receptor alpha-1 (Rattus norvegicus); assay: Binding affinity against Alpha1 adrenergic receptor

Chain of 5-hydroxytryptamine receptor 2C (Rattus norvegicus) (P08909 whole entry, looked up): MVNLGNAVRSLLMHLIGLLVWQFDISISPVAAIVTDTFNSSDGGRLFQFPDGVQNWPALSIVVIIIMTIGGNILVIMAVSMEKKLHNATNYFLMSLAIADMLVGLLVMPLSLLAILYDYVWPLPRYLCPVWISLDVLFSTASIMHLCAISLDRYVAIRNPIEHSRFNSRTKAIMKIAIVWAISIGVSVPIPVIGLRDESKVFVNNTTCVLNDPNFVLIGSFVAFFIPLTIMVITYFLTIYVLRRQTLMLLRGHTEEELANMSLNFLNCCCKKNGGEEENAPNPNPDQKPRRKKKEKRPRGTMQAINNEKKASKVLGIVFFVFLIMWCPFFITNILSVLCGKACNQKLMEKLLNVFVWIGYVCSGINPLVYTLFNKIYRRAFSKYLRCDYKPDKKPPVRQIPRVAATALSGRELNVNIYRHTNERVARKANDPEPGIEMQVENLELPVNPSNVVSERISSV
Chain of 5-hydroxytryptamine receptor 7 (P34969 whole entry): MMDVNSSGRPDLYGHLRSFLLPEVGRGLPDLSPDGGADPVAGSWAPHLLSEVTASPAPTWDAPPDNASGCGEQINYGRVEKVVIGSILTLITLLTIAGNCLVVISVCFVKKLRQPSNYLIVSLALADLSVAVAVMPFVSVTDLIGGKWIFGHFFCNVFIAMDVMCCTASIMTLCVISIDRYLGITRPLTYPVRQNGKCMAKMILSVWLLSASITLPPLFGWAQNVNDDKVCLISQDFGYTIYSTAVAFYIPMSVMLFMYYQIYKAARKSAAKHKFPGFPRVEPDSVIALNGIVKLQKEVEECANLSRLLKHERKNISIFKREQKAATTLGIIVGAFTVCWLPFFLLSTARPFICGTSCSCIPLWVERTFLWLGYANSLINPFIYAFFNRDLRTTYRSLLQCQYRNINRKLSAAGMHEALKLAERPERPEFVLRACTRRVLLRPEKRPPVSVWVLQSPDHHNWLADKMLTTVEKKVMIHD
Chain of D(2) dopamine receptor (P14416 whole entry): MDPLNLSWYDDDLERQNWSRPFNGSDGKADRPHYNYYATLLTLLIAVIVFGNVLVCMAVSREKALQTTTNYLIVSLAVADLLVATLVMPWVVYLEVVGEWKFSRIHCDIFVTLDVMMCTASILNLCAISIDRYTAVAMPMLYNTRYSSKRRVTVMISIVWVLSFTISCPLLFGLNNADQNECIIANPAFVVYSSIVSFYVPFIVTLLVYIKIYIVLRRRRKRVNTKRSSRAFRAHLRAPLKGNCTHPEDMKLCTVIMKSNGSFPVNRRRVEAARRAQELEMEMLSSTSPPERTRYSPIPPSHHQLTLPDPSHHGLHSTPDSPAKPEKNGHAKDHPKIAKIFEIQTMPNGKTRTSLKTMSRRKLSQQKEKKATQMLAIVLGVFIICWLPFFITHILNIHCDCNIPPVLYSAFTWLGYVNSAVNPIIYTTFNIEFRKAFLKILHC

Compound | Ki [1] [nM] | Ki (D(2) dopamine receptor) [nM] | Ki [2] [nM] | Ki [3] [nM]
C[C@H](Nc1cncc(NCCc2ccccc2)c1)c1ccccc1 | 13 |  |  | 
C[C@H](Nc1cc(NCCc2ccccc2)ccn1)c1ccccc1 | 3 |  |  | 
C[C@H](Nc1ccnc(NCCc2ccc(F)cc2)c1)c1ccccc1 | 0.4 |  |  | 
CC(Nc1ccnc(NCCc2ccc(F)cc2)n1)c1ccccc1 (racemic) | 6 |  |  | 
C[C@H](Nc1cccc(NCCc2ccccc2)c1)c1ccccc1 | > 1000 |  |  | 
C[C@H](Nc1ccnc(NCCOc2ccc(F)cc2)c1)c1ccccc1 | 0.2 | 370 | 15 | 
C[C@H](Nc1cccc(NCCOc2ccccc2)c1)c1ccccc1 | > 1000 |  |  | 
C[C@H](Nc1cc(NCCOc2ccc(F)cc2)ncn1)c1ccccc1 | 5 |  |  | 
C[C@H](Nc1ccnc(NCCOc2ccccc2)n1)c1ccccc1 | 2 |  |  | 
C[C@H](Nc1cncc(NCCOc2ccc(F)cc2)c1)c1ccccc1 | 4 | > 1000 | 476 | 
CC(Nc1nccc(NCCc2ccccc2)n1)c1ccccc1 (racemic) | 6 |  |  | 
C[C@H](Nc1cncc(NCCOc2ccccc2)c1)c1ccccc1 | 4 |  |  | 
C[C@H](Nc1cncc(NCCc2ccc(F)cc2)c1)c1ccccc1 | 16 |  |  | 
C[C@H](Nc1cc(NCCc2ccccc2)ncn1)c1ccccc1 | 33 |  |  | 
C[C@H](Nc1ccnc(NCCOc2ccc(F)cc2)n1)c1ccccc1 | 0.3 | > 1000 |  | 
C[C@H](Nc1cc(NCCc2ccc(F)cc2)ncn1)c1ccccc1 | 5 |  |  | 
C[C@H](Nc1ccnc(NCCc2ccccc2)n1)c1ccccc1 | 0.6 |  |  | 
C[C@H](Nc1cccc(NCCc2ccccc2)n1)c1ccccc1 | > 1000 |  |  | 
C[C@H](Nc1cc(NCCc2ccc(F)cc2)ccn1)c1ccccc1 | 4 |  |  | 
C[C@H](Nc1ccnc(NCCc2ccccc2)c1)c1ccccc1 | 0.3 |  |  | 
C[C@H](Nc1cccc(NCCOc2ccccc2)n1)c1ccccc1 | > 1000 |  |  | 
CC(Nc1nccc(NCCOc2ccc(F)cc2)n1)c1ccccc1 (racemic) | 1 | > 1000 | 40 | 57
C[C@H](Nc1ccnc(NCCOc2ccccc2)c1)c1ccccc1 | 0.4 |  |  | 
C[C@H](Nc1cc(NCCOc2ccccc2)ccn1)c1ccccc1 | 0.4 |  |  | 
C[C@H](Nc1cc(NCCOc2ccc(F)cc2)ccn1)c1ccccc1 | 0.4 | > 1000 | 13 | 
